Assay results from patent US20220168427A1 (Ranok Therapeutics (Hangzhou) Co. Ltd., priority 2019, published 2022).
Counter-ions that a name gives are not always drawn.

Key:
[1] = target: T1, BRD4 (BD1+BD2) (Homo sapiens, UniProt O60885); conditions: read-out: BRD4 Binding Potency
T1 construct: 1.8 μg/ml recombinant BRD4 (BD1+BD2 domains) protein

[2] = test system: MV4-11 cells; assay: MV4-11 Cell Cytotoxicity Assay; format: cell-based, human; conditions: human, MV4-11 cells, CCK-8
Excerpt: % Inhibition=100−(D−B)/(S−B)*100%.
S: The absorbance of the maximum (cells with DMSO)
B: The absorbance of the minimum (medium with DMSO)

[3] = target: HSP90α (Homo sapiens, UniProt P07900); assay: HSP90α Binding Fluorescent Polarization (FP) Assay; conditions: competition with FITC-geldanamycin; read-out: HSP90 Binding Potency
In short: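 Duplicate wells held BSA buffer, FITC-geldanamycin tracer, compound (3-fold dilution plate spanning 40 μM–2.0 nM) and recombinant protein diluted to 28 μg/ml before addition. Polarization read at 30, 60 and 120 min, 25 °C. Background-corrected mP values gave IC50 through a four-parameter inhibitor-response fit.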

Row | SMILES | IC50 [1] [nM] | IC50 at 72 h [2] [nM] | IC50 [3] [nM]
1 | CCN(CC)CCNC(=O)c1nnc(-c2ccc(O)cc2O)n1-c1ccc(CN2CCN(CC3CCN(C(=O)C[C@@H]4N=C(c5ccc(Cl)cc5)c5c(sc(C)c5C)-n5c(C)nnc54)CC3)CC2)cc1 [Compound 111, (S)-4-(4-((4-((1-(2-(4-(4-chlorophenyl)-2,3,9-trimethyl-6H-thieno[3,2-f][1,2,4]triazolo[4,3-a][1,4]diazepin-6-yl)acetyl)piperidin-4-yl)methyl)piperazin-1-yl)methyl)phenyl)-N-(2-(diethylamino)ethyl)-5-(2,4-dihydroxyphenyl)-4H-1,2,4-triazole-3-carboxamide, trifluoroacetic acid] | < 100 | < 100 | 100 to 1000
2 | Cc1sc2c(c1C)C(c1ccc(Cl)cc1)=N[C@@H](CC(=O)N1CCC(CN3CCN(Cc4ccc(-n5c(C(N)=O)nnc5-c5ccc(O)cc5O)cc4)CC3)CC1)c1nnc(C)n1-2 [Compound 112, (S)-4-(4-((4-((1-(2-(4-(4-chlorophenyl)-2,3,9-trimethyl-6H-thieno[3,2-f][1,2,4]triazolo[4,3-a][1,4]diazepin-6-yl)acetyl)piperidin-4-yl)methyl)piperazin-1-yl)methyl)phenyl)-5-(2,4-dihydroxyphenyl)-4H-1,2,4-triazole-3-carboxamide, trifluoroacetic acid] | < 100 | < 100 | 100 to 1000
3 | CCc1cc(-c2nnc(C(=O)NCCN3CCCCC3)n2-c2ccc(CN3CCN(CC4CCN(C(=O)C[C@@H]5N=C(c6ccc(Cl)cc6)c6c(sc(C)c6C)-n6c(C)nnc65)CC4)CC3)cc2)c(O)cc1O [Compound 117, (S)-4-(4-((4-((1-(2-(4-(4-chlorophenyl)-2,3,9-trimethyl-6H-thieno[3,2-f][1,2,4]triazolo[4,3-a][1,4]diazepin-6-yl)acetyl)piperidin-4-yl)methyl)piperazin-1-yl)methyl)phenyl)-5-(5-ethyl-2,4-dihydroxyphenyl)-N-(2-(piperidin-1-yl)ethyl)-4H-1,2,4-triazole-3-carboxamide, trifluoroacetic acid] | < 100 | < 100 | 100 to 1000
4 | CCN(CC)CCNC(=O)c1nnc(-c2cc(C(C)C)c(O)cc2O)n1-c1ccc(CN2CCN(CC3CCN(C(=O)C[C@@H]4N=C(c5ccc(Cl)cc5)c5c(sc(C)c5C)-n5c(C)nnc54)CC3)CC2)cc1 [Compound 118, (S)-4-(4-((4-((1-(2-(4-(4-chlorophenyl)-2,3,9-trimethyl-6H-thieno[3,2-f][1,2,4]triazolo[4,3-a][1,4]diazepin-6-yl)acetyl)piperidin-4-yl)methyl)piperazin-1-yl)methyl)phenyl)-N-(2-(diethylamino)ethyl)-5-(2,4-dihydroxy-5-isopropylphenyl)-4H-1,2,4-triazole-3-carboxamide, trifluoroacetic acid] | < 100 | < 100 | 100 to 1000
5 | Cc1sc2c(c1C)C(c1ccc(Cl)cc1)=N[C@@H](CC(=O)N1CCC(CN3CCN(Cc4ccc(-n5c(C(=O)NC(C)C)nnc5-c5ccc(O)cc5O)cc4)CC3)CC1)c1nnc(C)n1-2 [Compound 119, (S)-4-(4-((4-((1-(2-(4-(4-chlorophenyl)-2,3,9-trimethyl-6H-thieno[3,2-f][1,2,4]triazolo[4,3-a][1,4]diazepin-6-yl)acetyl)piperidin-4-yl)methyl)piperazin-1-yl)methyl)phenyl)-5-(2,4-dihydroxyphenyl)-N-isopropyl-4H-1,2,4-triazole-3-carboxamide, trifluoroacetic acid] | < 100 | < 100 | 100 to 1000
6 | CCCc1cc(-c2nnc(C(=O)NCCN3CCCCC3)n2-c2ccc(CN3CCN(CC4CCN(C(=O)C[C@@H]5N=C(c6ccc(Cl)cc6)c6c(sc(C)c6C)-n6c(C)nnc65)CC4)CC3)cc2)c(O)cc1O [Compound 123, (S)-4-(4-((4-((1-(2-(4-(4-chlorophenyl)-2,3,9-trimethyl-6H-thieno[3,2-f][1,2,4]triazolo[4,3-a][1,4]diazepin-6-yl)acetyl)piperidin-4-yl)methyl)piperazin-1-yl)methyl)phenyl)-5-(2,4-dihydroxy-5-propylphenyl)-N-(2-(piperidin-1-yl)ethyl)-4H-1,2,4-triazole-3-carboxamide, trifluoroacetic acid] | < 100 | < 100 | 100 to 1000
7 | Cc1cc(-c2nnc(C(=O)NCCN3CCCCC3)n2-c2ccc(CN3CCN(CC4CCN(C(=O)C[C@@H]5N=C(c6ccc(Cl)cc6)c6c(sc(C)c6C)-n6c(C)nnc65)CC4)CC3)cc2)c(O)cc1O [Compound 124, (S)-4-(4-((4-((1-(2-(4-(4-chlorophenyl)-2,3,9-trimethyl-6H-thieno[3,2-f][1,2,4]triazolo[4,3-a][1,4]diazepin-6-yl)acetyl)piperidin-4-yl)methyl)piperazin-1-yl)methyl)phenyl)-5-(2,4-dihydroxy-5-methylphenyl)-N-(2-(piperidin-1-yl)ethyl)-4H-1,2,4-triazole-3-carboxamide, trifluoroacetic acid] | < 100 | < 100 | 100 to 1000
8 | Cc1sc2c(c1C)C(c1ccc(Cl)cc1)=N[C@H](CC(=O)N1CCC(CN3CCN(Cc4ccc(-n5c(O)nnc5-c5cc(C(C)C)c(O)cc5O)cc4)CC3)CC1)c1nnc(C)n1-2 [Compound 125, (R)-2-(4-(4-chlorophenyl)-2,3,9-trimethyl-6H-thieno[3,2-f][1,2,4]triazolo[4,3-a][1,4]diazepin-6-yl)-1-(4-((4-(4-(3-(2,4-dihydroxy-5-isopropylphenyl)-5-hydroxy-4H-1,2,4-triazol-4-yl)benzyl)piperazin-1-yl)methyl)piperidin-1-yl)ethan-1-one hydrochloride] | > 1000 | < 100 | < 100
9 | CCNC(=O)c1noc(-c2cc(C(C)C)c(O)cc2O)c1-c1ccc(CN2CCN(CC3CCN(C(=O)C[C@@H]4N=C(c5ccc(Cl)cc5)c5c(sc(C)c5C)-n5c(C)nnc54)CC3)CC2)cc1 [Compound 126, (S)-4-(4-((4-((1-(2-(4-(4-chlorophenyl)-2,3,9-trimethyl-6H-thieno[3,2-f][1,2,4]triazolo[4,3-a][1,4]diazepin-6-yl)acetyl)piperidin-4-yl)methyl)piperazin-1-yl)methyl)phenyl)-5-(2,4-dihydroxy-5-isopropylphenyl)-N-ethylisoxazole-3-carboxamide hydrochloride] | 100 to 1000 | < 100 | 100 to 1000
10 | Cc1sc2c(c1C)C(c1ccc(Cl)cc1)=N[C@@H](CC(=O)NCCOCCOCCN[C@@H](C)C(=O)N[C@H](C(=O)N1CCC[C@H]1C(=O)Nc1snnc1-c1ccccc1)C1CCCCC1)c1nnc(C)n1-2 [Compound 128, (S)-1-((2S,5S)-17-((S)-4-(4-chlorophenyl)-2,3,9-trimethyl-6H-thieno[3,2-f][1,2,4]triazolo[4,3-a][1,4]diazepin-6-yl)-2-cyclohexyl-5-methyl-4,16-dioxo-9,12-dioxa-3,6,15-triazaheptadecanoyl)-N-(4-phenyl-1,2,3-thiadiazol-5-yl)pyrrolidine-2-carboxamide] | > 1000 | > 1000 | > 1000
11 | Cc1sc2c(c1C)C(c1ccc(Cl)cc1)=N[C@@H](CC(=O)N1CCC(CN[C@@H](C)C(=O)N[C@H](C(=O)N3CCC[C@H]3C(=O)Nc3snnc3-c3ccccc3)C3CCCCC3)CC1)c1nnc(C)n1-2 [Compound 129, (S)-1-((S)-2-((S)-2-(((1-(2-((S)-4-(4-chlorophenyl)-2,3,9-trimethyl-6H-thieno[3,2-f][1,2,4]triazolo[4,3-a][1,4]diazepin-6-yl)acetyl)piperidin-4-yl)methyl)amino)propanamido)-2-cyclohexylacetyl)-N-(4-phenyl-1,2,3-thiadiazol-5-yl)pyrrolidine-2-carboxamide] | > 1000 | > 1000 | > 1000
12 | Cc1sc2c(c1C)C(c1ccc(Cl)cc1)=N[C@@H](CC(=O)N1CCC(CCN[C@@H](C)C(=O)N[C@H](C(=O)N3CCC[C@H]3C(=O)Nc3snnc3-c3ccccc3)C3CCCCC3)CC1)c1nnc(C)n1-2 [Compound 130, (S)-1-((S)-2-((S)-2-((2-(1-(2-((S)-4-(4-chlorophenyl)-2,3,9-trimethyl-6H-thieno[3,2-f][1,2,4]triazolo[4,3-a][1,4]diazepin-6-yl)acetyl)piperidin-4-yl)ethyl)amino)propanamido)-2-cyclohexylacetyl)-N-(4-phenyl-1,2,3-thiadiazol-5-yl)pyrrolidine-2-carboxamide] | 100 to 1000 | 100 to 1000 | > 1000
13 | COc1cccc(-c2cc(C(=O)Nc3ccc(-c4ccc(OC5CCN(CC[C@@H]6N=C(c7ccc(Cl)cc7)c7c(sc(C)c7C)-n7c(C)nnc76)CC5)cc4O)cc3)ccc2OC)c1 [Compound 132] | > 1000 | > 1000 | > 1000
14 | COc1cccc(-c2cc(C(=O)Nc3ccc(-c4ccc(OC5CCN(C(=O)CNC(=O)C[C@@H]6N=C(c7ccc(Cl)cc7)c7c(sc(C)c7C)-n7c(C)nnc76)CC5)cc4O)cc3)ccc2OC)c1 [Compound 134] | > 1000 | > 1000 | > 1000
15 | COc1cccc(-c2cc(C(=O)Nc3ccc(-c4ccc(OC5CCN(C)CC5)cc4OCCN(C)CC[C@@H]4N=C(c5ccc(Cl)cc5)c5c(sc(C)c5C)-n5c(C)nnc54)cc3)ccc2OC)c1 [Compound 135] | 100 to 1000 | 100 to 1000 | > 1000
16 | COc1cccc(-c2cc(C(=O)Nc3ccc(-c4ccc(OC5CCN(C)CC5)cc4OCCN(C)C(=O)C[C@@H]4N=C(c5ccc(Cl)cc5)c5c(sc(C)c5C)-n5c(C)nnc54)cc3)ccc2OC)c1 [Compound 136] | 100 to 1000 | 100 to 1000 | > 1000
